Assay results as given in PubChem BioAssay (NCI).
Several values for one entry are separate records, joined by “and”; a condition that tells them apart may be missing. Equal values may be shown once.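 The compound was tested at five concentrations on cells cultured in 96-well plates, with a 48-hour exposure period. The concentration for 50% growth inhibition is given as GI50. TGI: concentration producing complete growth inhibition.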

Tests used:
Test in all cases: NCI-60 cell line screen, 48 h
[1] = system: BT-549 breast
[2] = system: CAKI-1 renal
[3] = system: HCC-2998 colon
[4] = system: KM12 colon
[5] = system: MDA-MB-435
[6] = system: OVCAR-4 ovarian
[7] = system: OVCAR-8 ovarian
[8] = system: SF-539 CNS
[9] = system: SNB-19 CNS
[10] = system: UACC-257 melanoma

| SMILES | GI50 [1] | TGI [1] | GI50 [2] | TGI [2] | GI50 [3] | TGI [3] | GI50 [4] | TGI [4] | GI50 [5] | TGI [5] | GI50 [6] | TGI [6] | GI50 [7] | TGI [7] | GI50 [8] | TGI [8] | GI50 [9] | TGI [9] | GI50 [10] | TGI [10] |
| --- | --- | --- | --- | --- | --- | --- | --- | --- | --- | --- | --- | --- | --- | --- | --- | --- | --- | --- | --- | --- |
| COc1cc(Cl)cc(-c2nn(-c3cccc(NC(=O)Nc4cc(C(F)(F)F)cc(C(F)(F)F)c4)c3)cc2-c2ccncc2)c1 | 2.34 µM | 6.78 µM | 0.426 µM | 4.4 µM | 0.963 µM | 5.42 µM | 0.447 µM | 2.77 µM | 0.684 µM | 2.62 µM | 0.581 µM | 17.5 µM | 0.39 µM | 2.46 µM | 1.48 µM | 3.61 µM | 0.612 µM | 12.7 µM | 0.686 µM | 2.68 µM |
| O=C(Nc1ccc2[nH]c(=S)sc2c1)Nc1ccccc1F | 32 µM | > 100 µM | 2.71 µM | 14.6 µM | 30.6 µM | > 100 µM | 24.7 µM | > 100 µM | 23.1 µM | > 100 µM | 21 µM | > 100 µM | 56.5 µM | > 100 µM | 29.6 µM | > 100 µM | 41.8 µM | > 100 µM | 73.5 µM | > 100 µM |
| O=P(CCCCP(=O)(c1ccccc1)c1ccccc1)(c1ccccc1)c1ccccc1.[Cl][Sn]([Cl])([c]1ccccc1)[c]1ccccc1 | 1.79 µM | 3.86 µM | 0.661 µM | 3.32 µM | 2.76 µM | 10.1 µM | 3.05 µM | 10.5 µM | 1.77 µM | 3.91 µM | 1.54 µM | 3 µM | 2.3 µM | 6.28 µM | 1.43 µM | 3.64 µM | 4.18 µM | 18 µM | 1.68 µM | 3.31 µM |
| Nc1nc(N)c2c(n1)NC(c1ccc(F)cc1)C1CCc3ccccc3C1=N2 (stereo not given) | 3.89 µM | 16.6 µM | 2.72 µM | 16.2 µM | 2.44 µM | 6.67 µM | 4.93 µM | 17 µM | 2.84 µM | 11.6 µM | 3.98 µM | 18.2 µM | 8.07 µM | 27 µM | 10.5 µM | 22.4 µM | 12 µM | 24.8 µM | 5.37 µM | 17.8 µM |
| O=C(c1ccccc1)C(Br)C(Br)c1cccc([N+](=O)[O-])c1 (stereo not given) | 2 µM | 3.65 µM | 1.76 µM | 3.58 µM | 1.57 µM | 2.95 µM | 1.61 µM | 3.05 µM | 2.52 µM | 7.19 µM | 1.49 µM | 2.81 µM | 3.35 µM | 12.7 µM | 2.32 µM | 5.05 µM | 3.32 µM | 12.9 µM | 1.8 µM | 3.89 µM |
| COC(=O)CCC1CCC(c2cc(F)ccc2F)(S(=O)(=O)c2ccc(Cl)cc2)CC1 (stereo not given) | 70.6 µM | > 100 µM | 6 µM | > 100 µM | > 100 µM | > 100 µM | 62.1 µM | > 100 µM | 88.5 µM | > 100 µM | 45.5 µM | > 100 µM | > 100 µM | > 100 µM | > 100 µM | > 100 µM | > 100 µM | > 100 µM | 48.9 µM | > 100 µM |
| Oc1[nH]c2c(Br)cccc2c1C1=Nc2ccccc2/C1=N/OCCN1CCCC1 | 1.24 µM | 2.85 µM | 0.332 µM | 2.24 µM | 1 µM | 6.18 µM | 0.708 µM and 0.501 µM | > 100 µM | 1.58 µM and 1.91 µM | > 100 µM | 1.14 µM | 3.35 µM | 0.792 µM |  | 0.557 µM | 2.05 µM | 1.93 µM |  | 2.67 µM |  |
| CCCCCCCCCCCCOC1C(C(COC2OC(C3COC(C)(C)O3)C3OC(C)(C)OC23)NC(=O)NS(=O)(=O)c2ccccc2)OC2OC(C)(C)OC21 (stereo not given) | 3.61 µM | 13.1 µM | 7.14 µM | 20 µM | 3.24 µM | 12.8 µM | 5.15 µM | 31.5 µM | 4.6 µM | 21.5 µM | 8.23 µM | 66.5 µM | 3.35 µM | 23.9 µM | 2.53 µM | 6.54 µM | 9.18 µM | 40 µM | 4 µM | 16.5 µM |
| Cc1cc(NCc2cc(Nc3ccnc4cc(Cl)ccc34)ccc2F)nc(N2CCN(C)CC2)n1 | 1.77 µM | 3.65 µM | 1.67 µM | 4 µM | 2.09 µM | 4.35 µM | 2.11 µM | 6.5 µM | 1.52 µM | 2.96 µM | 1.56 µM | 8.57 µM | 3.14 µM | 12.9 µM | 1.79 µM | 3.37 µM | 2.72 µM | 12.9 µM | 1.87 µM | 3.68 µM |
| COc1cccc2c1C(=O)c1c(O)c3c(c(O)c1C2=O)C[C@@](O)(C(=O)CO)C[C@@H]3O[C@H]1C[C@H](N)[C@@H](O)[C@H](C)O1 | 0.128 µM | 0.474 µM | 1.32 µM | 30.7 µM | 0.161 µM | 1.29 µM | 0.502 µM | 18.2 µM | 0.465 µM | 1.29 µM | 0.546 µM | 5.87 µM | 0.256 µM | 19.5 µM |  |  | 0.127 µM | 21.7 µM | 0.431 µM | 1.82 µM |
| CN(C)CC1C(=O)O[C@H]2[C@H]1CC/C(COC(=O)c1cc3ccccc3[nH]1)=C\CC[C@@]1(C)O[C@@H]21 (stereo not given in full) | 1.66 µM | 4.48 µM | 1.31 µM | 2.85 µM | 1.78 µM | 3.58 µM | 3.23 µM | 10.8 µM | 1.49 µM | 3.2 µM | 1.57 µM | 3.68 µM | 2.13 µM | 7.48 µM | 2.2 µM | 5.86 µM | 11.4 µM | 25.9 µM | 1.47 µM | 3.24 µM |
| CC(C)c1c(O)ccc2c1CCC1C(C)(C)CCCC21C (stereo not given) |  | 32.8 µM |  | 31.7 µM |  | 37.2 µM |  | 42.7 µM |  | 38.5 µM |  | 32.9 µM |  | 31.7 µM |  | 34 µM |  | 32.3 µM |  | 32.2 µM |
